Drawing on the PolyMetriX glass transition set, this text covers glass transition temperature for 42 compounds.

SMILES strings stand for the structures.

As to `*/C(C#N)=C(\C#N)N1C(=O)c2ccc(C(=O)c3ccc(-c4ccc5c(c4)C(=O)N(*)C5=O)cc3)cc2C1=O` (repeat unit), the glass transition temperature was found to be 249.00 °C.
The compound `*CCOCCOCCN1C(=O)c2ccc(C(=O)Oc3ccc(-c4ccc(OC(=O)c5ccc6c(c5)C(=O)N(*)C6=O)cc4)cc3)cc2C1=O` (repeat unit) returned a glass transition temperature of 109.00 °C.
`*OP(=O)(Oc1c(Cl)c(Cl)c(*)c(Cl)c1Cl)Oc1c(Cl)c(Cl)c(Cl)c(Cl)c1Cl` (repeat unit) returned a glass transition temperature of 133.00 °C.
Then `*OP(=O)(Oc1ccc(Cl)cc1)Oc1c(Cl)c(Cl)c(*)c(Cl)c1Cl` (repeat unit), with 119.00 °C.
In turn, `*OP(=O)(Oc1ccccc1)Oc1c(Cl)c(Cl)c(*)c(Cl)c1Cl` (repeat unit) yielded a glass transition temperature of 79.00 °C.
`*O[Si](C)(C)O[Si](C)(C)O[Si](C)(C)O[Si](C)(C)O[Si](C)(C)Oc1c(*)c2ccccc2c2ccccc12` (repeat unit) returned a glass transition temperature of -38.00 °C.
`*O[Si](C)(C)O[Si](C)(C)Oc1ccc(-c2ccc(*)cc2)cc1` (repeat unit) came in with a glass transition temperature of -4.00 °C.
As to `*O[Si](Oc1ccc(-c2ccc(*)cc2)cc1)(c1ccccc1)c1ccccc1` (repeat unit), the glass transition temperature worked out at 132.2 °C.
As to `*Oc1c(-c2ccccc2)cc(*)cc1-c1cccc(-c2ccccc2)c1-c1ccccc1` (repeat unit), the glass transition temperature turned out to be 212.00 °C.
For the compound `*Oc1c(-c2ccccc2)cc(*)cc1-c1cccc2ccccc12` (repeat unit), the glass transition temperature turned out to be 234.00 °C.
In turn, `*Oc1c(C)cc(*)cc1C(C)CCC` (repeat unit) returned a glass transition temperature of 100.00 °C.
With `*Oc1c(C)cc(*)cc1C(C)CCCCCC` (repeat unit), the glass transition temperature stood at 54.00 °C.
Compound `*Oc1c(C)cc(*)cc1C(C)CCCCCCCCCCCC` (repeat unit) returned a glass transition temperature of -10.00 °C.
Regarding `*Oc1c(Cl)cc(*)cc1Br` (repeat unit), the glass transition temperature was 188.50 °C.
As to `*Oc1c(Cl)cc(C(c2cc(Cl)c(OC(*)=O)c(Cl)c2)C(Cl)(Cl)Cl)cc1Cl` (repeat unit), the glass transition temperature is 273.00 °C.
For the compound `*Oc1c(Cl)cc(C2(c3cc(Cl)c(OC(*)=O)c(Cl)c3)CC3CCC2C3)cc1Cl` (repeat unit), the glass transition temperature was 290.00 °C.
The compound `*Oc1cc(Br)cc(Br)c1*` (repeat unit) displayed a glass transition temperature of 170.00 °C.
In the case of `*Oc1cc(C)c(*)c(C)c1Br` (repeat unit), the glass transition temperature came out at 280.1 °C.
`*Oc1cc(Cl)cc(Cl)c1*` (repeat unit): the glass transition temperature worked out at 165.00 °C.
Take `*Oc1ccc(-c2ccc(-c3cc(-c4ccccc4)c(-c4ccc(-c5ccc(OC(=O)c6ccc(C(*)=O)cc6-c6ccccc6)cc5)cc4)c(-c4ccccc4)c3-c3ccccc3)cc2)cc1` (repeat unit): the glass transition temperature is 260.00 °C.
Turning to `*Oc1ccc(-c2ccc(OC(*)(Oc3ccccc3)Oc3ccccc3)cc2)cc1` (repeat unit), the glass transition temperature is 112.00 °C.
Turning to `*Oc1ccc(-c2ccc(OC(=O)c3cc(OCCCc4ccccc4)c(C(*)=O)cc3OCCCc3ccccc3)cc2)cc1` (repeat unit), the glass transition temperature came out at 72.00 °C.
Then `*Oc1ccc(-c2ccc(OC(=O)c3ccc(-c4ccc(C(*)=O)cc4)cc3-c3ccccc3)cc2)cc1` (repeat unit), with 168.00 °C.
Consider `*Oc1ccc(-c2ccc(OC(=O)c3ccc(C(*)=O)cc3)cc2)cc1-c1ccccc1` (repeat unit), for which the glass transition temperature worked out at 132.00 °C.
Consider `*Oc1ccc(-c2ccc(Oc3ccc4ccccc4c3-c3c(*)ccc4ccccc34)c3ccccc23)c2ccccc12` (repeat unit), for which the glass transition temperature worked out at 301.00 °C.
In the case of `*Oc1ccc(-c2ccc(Oc3cccc(*)n3)cc2)cc1` (repeat unit) it was 119.00 °C; in that of `*Oc1ccc(/C(=C/c2ccc(-c3ccc(/C=C(\c4ccccc4)c4ccc(OC(=O)c5ccc(C(*)=O)cc5)cc4)cc3)cc2)c2ccccc2)cc1` (repeat unit), 236.00 °C.
Then `*Oc1ccc(C(=O)c2ccccc2)c(-c2cc(Oc3ccc(-c4ccc(*)cc4)cc3)ccc2C(=O)c2ccccc2)c1` (repeat unit), with 174.00 °C.
In the case of `*Oc1ccc(Oc2ccc(C(=O)c3ccc(Oc4ccc(Oc5ccc(C(=O)c6ccc(*)c(C(C)C)c6)cc5)cc4)cc3)cc2C(C)C)cc1` (repeat unit) it was 145.00 °C; in that of `*Oc1cccc(Oc2ccc(-c3ccc(*)cc3)cc2)c1C#N` (repeat unit), 210.00 °C.
Take `*c1cc(N2C(=O)c3ccc(Oc4cc5ccccc5cc4Oc4ccc5c(c4)C(=O)N(*)C5=O)cc3C2=O)cc(C(F)(F)F)c1` (repeat unit): the glass transition temperature was found to be 250.00 °C.
For `*c1ccc(C(c2ccc(N3C(=O)c4ccc(Oc5cc6ccccc6cc5Oc5ccc6c(c5)C(=O)N(*)C6=O)cc4C3=O)cc2)(C(F)(F)F)C(F)(F)F)cc1` (repeat unit), the glass transition temperature is 256.00 °C.
Turning to `*c1ccc(OC(=O)c2cccc(C(=O)Oc3ccc(-c4nc5ccccc5nc4*)cc3)c2)cc1` (repeat unit), the glass transition temperature came to 245.00 °C.
Compound `*c1ccc(Oc2cc(C(C)(C)C)ccc2Oc2ccc(-n3c(=O)c4cc5c(=O)n(*)c(=O)c5cc4c3=O)cc2)cc1` (repeat unit) registered a glass transition temperature of 321.00 °C.
Consider `*c1ccc(Oc2ccc(C(=O)c3ccc(Oc4ccc(N5C(=O)c6ccc(S(=O)(=O)c7ccc8c(c7)C(=O)N(*)C8=O)cc6C5=O)cc4)cc3)cc2)cc1` (repeat unit), for which the glass transition temperature is 275.50 °C.
Consider `*c1ccc(Oc2ccc(Oc3ccc(N4C(=O)c5ccc(Oc6cc7ccccc7cc6Oc6ccc7c(c6)C(=O)N(*)C7=O)cc5C4=O)cc3)cc2)cc1` (repeat unit), for which the glass transition temperature was 224.50 °C.
Regarding `*c1ccc(Oc2ccc(Oc3ccc(Oc4ccc(-c5cnc6cc(-c7ccc8nc(*)cnc8c7)ccc6n5)cc4)cc3)cc2)cc1` (repeat unit), the glass transition temperature came out at 133.00 °C.
Regarding `*c1ccc(Oc2ccc(Oc3ccc(Oc4ccc(N5C(=O)c6ccc(Oc7ccc(-c8ccc(Oc9ccc%10c(c9)C(=O)N(*)C%10=O)cc8)cc7)cc6C5=O)cc4)cc3)cc2)cc1` (repeat unit), the glass transition temperature stood at 208.00 °C.
Take `*c1ccc(Oc2cccc(N3C(=O)c4ccc(Oc5cc6ccccc6cc5Oc5ccc6c(c5)C(=O)N(*)C6=O)cc4C3=O)c2)cc1` (repeat unit): the glass transition temperature was determined as 226.00 °C.
Take `*c1ccc(Oc2cccc(Oc3ccc(N4C(=O)c5ccc(Oc6ccc(-c7ccc(Oc8ccc9c(c8)C(=O)N(*)C9=O)cc7)cc6)cc5C4=O)cc3)c2)cc1` (repeat unit): the glass transition temperature worked out at 205.00 °C.
The compound `*c1ccc2c(c1)C(=O)N(c1ccc(Oc3ccc(C(=O)c4ccc(Oc5ccc(N6C(=O)c7ccc(C(*)(C(F)(F)F)C(F)(F)F)cc7C6=O)cc5)cc4)cc3)cc1)C2=O` (repeat unit) came in with a glass transition temperature of 266.00 °C.
`*c1cccc(N2C(=O)c3ccc(Oc4ccc(-c5ccc(Oc6ccc7c(c6)C(=O)N(*)C7=O)cc5)cc4)cc3C2=O)c1` (repeat unit) displayed a glass transition temperature of 247.00 °C.
